Measured values: patent US20090275514A1, “USE OF CALMODULIN KINASE II INHIBITORS TO TREAT OR PREVENT HEART MUSCLE INFLAMMATION” (priority 2008, published 2009)

Tests used:
[1] = system: Cfb expression in neonatal cardiomyocytes; test: TNFα-induced Cfb expression in cultured neonatal cardiomyocytes (qRT-PCR); assay type: cell-based, mouse; settings: RNA after 12 h
Experimental: (§1) All animal experiments were done in compliance with the “Guiding Principles for the Care and Use of Laboratory Animals.” Mouse neonatal cardiac myocytes were isolated from 1 to 3-day-old newborn B6D2/F1 mice according to an established protocol. Hearts were dissected and incubated with F-10 nutrient medium, containing 140 μg/ml of collagenase type-2 (Sigma) and 440 μg/ml pancreatin (Sigma) until cells were dissociated. The cells were then washed, resuspended in 1:1 mix of Dulbecco's minimal Eagle's medium (DMEM) and F10 nutrient mix with 5% each of equine and bovine calf serum. These cells were pre-plated in tissue culture dishes for 1 h to allow for attachment of nonmyocytes. The resulting non-adherent myocytes were plated on fibronectin-coated (Sigma) tissue culture dishes. […]
(§2) Total RNA was isolated from mouse heart, liver, isolated adult cardiomyocytes, or cultured neonatal cardiomyocytes using Qiagen RNA isolation kit. RNA samples were quantified by determining A260 in capillary cuvettes (Gene Machine, Pharmacia). […]
(§3) For SYBR Green quantitative real-time PCR, 1 μl of reverse transcription reaction was mixed with 10 pmoles each specific primer and 12.5 μl SYBR PCR Master Mix (BioRad). […] The threshold cycle (CT) was determined by the icycler software, and quantification of relative mRNA levels was performed by ΔΔCT method.

[2] = system: Cfb expression in neonatal cardiomyocytes; test: LPS-induced Cfb expression in cultured neonatal cardiomyocytes (qRT-PCR); assay type: cell-based, mouse
Experimental: as §1, §2, §3

[3] = system: gene expression in infarcted hearts; test: cDNA microarray of infarcted hearts (CaMKII-regulated genes); assay type: in vivo, mouse; settings: three weeks after MI; compared to infarcted AC3-C hearts; 8,600 genes on array
Experimental: (§4) Mouse hearts were infarcted by opening the thoracic cavity and placing a ligature on the left descending coronary artery, as described (3). Both male and female mice were infracted, and three-week post-infarction, RNA was isolated from cardiac tissue using RNeasy kit (Qiagen). Hearts were harvested one week after MI surgery for protein studies. Gene expression profiles of pooled RNA from at least five hearts of each gender were determined from cDNA microarrays containing 8600 elements derived from clones isolated from normalized cDNA libraries or purchased from ResGen (Invitrogen) as described previously (52). Differential expression values were calculated as the ratio of the median of background-subtracted fluorescent intensity of the experimental RNA to the median of background-subtracted fluorescent intensity of the control RNA. […] For the analyses, the results from both genders were compiled.

[4] = system: CFB protein in infarcted hearts; test: CFB protein in hearts after myocardial infarction (immunoblotting); assay type: in vivo, mouse; settings: one week following MI; transgenic hearts compared to WT
Experimental: as §4
Tissue samples were homogenized in modified RIPA buffer (50 mM Hepes, pH 7.5; 150 mM NaCl; 5 mM EDTA; 1% v/v NP-40 and 0.5% w/v deoxycholate) containing mixture of protease and phosphatase inhibitors. […] Protein bands were detected using ECL reagent (Lumi-Light, Roche), and loading was routinely monitored by Coomassie staining of the blots after antibody probing. For quantification, QuantityOne software (BioRad) was used.

[5] = neonatal cardiomyocytes from transgenic mice, compared to WT cells

Row | Molecule | induction of Cfb expression by TNFα ([1]; neonatal cardiomyocytes, TNFα (100 pg/ml) with water-soluble KN-93 (2.5 μM)) | induction of Cfb mRNA by LPS ([2]; WT neonatal cardiomyocytes, water-soluble KN-93 (2.5 μM) added an hour prior to LPS 10 μg/ml, RNA after 12 h) | number of genes with reduced expression in infarcted hearts [3] | CFB protein in heart after MI [4] | induction of Cfb by TNFα in cardiomyocytes expressing the peptide [1, 5] | induction of Cfb mRNA by LPS in cardiomyocytes expressing the peptide [2, 5]
1 | COc1ccc(S(=O)(=O)N(CCO)c2ccccc2CN(C)CC=Cc2ccc(Cl)cc2)cc1 [KN-93] | significantly blunted | significantly (P<0.001) attenuated induction of Cfb mRNA | – | – | – | –
2 | AC3-I: CaMKII-inhibitory peptide of SEQ ID NO:16, transgenically expressed in cardiomyocytes (KKALHRQEAVDCL) | – | – | 88 genes | Significantly reduced CFB protein | significantly lower | strong attenuation of Cfb induction
